Source: PMC5433425 (PeerJ, 2017)
Several values for one entry are separate records, joined by “and”; a condition that tells them apart may be missing. Identical values can stand only once.

Key:
E. coli AG100tet [1] = experiment: EtBr accumulation by real-time fluorometry; conditions: EtBr 2 µg/ml + inhibitor 80 µM
E. coli AG100 [2] = experiment: Membrane permeability assay (Live/Dead BacLight); conditions: for BacLight Live/Dead fluorescence 485/20,528/20 / BacLight Live/Dead fluorescence 485/20,590/35: raw well reading
E. coli AG100tet [3] = experiment: microbe, parasite or virus in culture; format: cell-based, Escherichia coli; conditions: AG100tet
Description: (§1) The assays were performed in triplicate and the MIC value was given as result of at least two concordant values.

E. coli AG100 [4] = experiment: Membrane potential assay (BacLight, DiOC2(3))
E. coli AG100 [5] = experiment: Checkerboard synergy assay (MIC of antibiotics/EtBr with efflux inhibitor); format: cell-based, Escherichia coli; conditions: AG100
Description: as §1

Structure (SMILES): CCCOc1ccc(-c2cc(OCCN3CCNCC3)c3ccccc3n2)cc1 [PQQ4R, 4-(2-(piperazin-1-yl)ethoxy)-2-(4-propoxyphenyl) quinolone]
- EtBr fluorescence (E. coli AG100tet [1]; cycle 1): 9.875
- EtBr fluorescence (E. coli AG100tet [1]; cycle 2): 10.6846
- EtBr fluorescence (E. coli AG100tet [1]; cycle 3): 11.6019
- EtBr fluorescence (E. coli AG100tet [1]; cycle 4): 12.4491
- EtBr fluorescence (E. coli AG100tet [1]; cycle 5): 13.6501
- EtBr fluorescence (E. coli AG100tet [1]; cycle 6): 14.6495
- EtBr fluorescence (E. coli AG100tet [1]; cycle 7): 15.6732
- EtBr fluorescence (E. coli AG100tet [1]; cycle 8): 16.6247
- EtBr fluorescence (E. coli AG100tet [1]; cycle 9): 17.8761
- EtBr fluorescence (E. coli AG100tet [1]; cycle 10): 18.9066
- EtBr fluorescence (E. coli AG100tet [1]; cycle 11): 20.4282
- EtBr fluorescence (E. coli AG100tet [1]; cycle 12): 21.7393
- EtBr fluorescence (E. coli AG100tet [1]; cycle 13): 23.4754
- EtBr fluorescence (E. coli AG100tet [1]; cycle 14): 25.1013
- EtBr fluorescence (E. coli AG100tet [1]; cycle 15): 27.2614
- EtBr fluorescence (E. coli AG100tet [1]; cycle 16): 29.2172
- EtBr fluorescence (E. coli AG100tet [1]; cycle 17): 32.322
- EtBr fluorescence (E. coli AG100tet [1]; cycle 18): 34.6681
- EtBr fluorescence (E. coli AG100tet [1]; cycle 19): 38.0364
- EtBr fluorescence (E. coli AG100tet [1]; cycle 20): 40.8691
- EtBr fluorescence (E. coli AG100tet [1]; cycle 21): 44.3636
- EtBr fluorescence (E. coli AG100tet [1]; cycle 22): 47.9426
- EtBr fluorescence (E. coli AG100tet [1]; cycle 23): 51.4641
- EtBr fluorescence (E. coli AG100tet [1]; cycle 24): 55.2307
- EtBr fluorescence (E. coli AG100tet [1]; cycle 25): 58.9315
- EtBr fluorescence (E. coli AG100tet [1]; cycle 26): 63.4348
- EtBr fluorescence (E. coli AG100tet [1]; cycle 27): 67.7728
- EtBr fluorescence (E. coli AG100tet [1]; cycle 28): 71.5821
- EtBr fluorescence (E. coli AG100tet [1]; cycle 29): 76.2698
- EtBr fluorescence (E. coli AG100tet [1]; cycle 30): 79.495
- BacLight Live/Dead fluorescence 485/20,528/20 (E. coli AG100 [2]; 80 uM): 153 and 118
- BacLight Live/Dead fluorescence 485/20,590/35 (E. coli AG100 [2]; 80 uM): 38 and 30
- BacLight Live/Dead fluorescence 485/20,528/20 (E. coli AG100 [2]; 160 uM): 278 and 253
- BacLight Live/Dead fluorescence 485/20,590/35 (E. coli AG100 [2]; 160 uM): 85 and 82
- BacLight Live/Dead fluorescence 485/20,528/20 (E. coli AG100 [2]; 320 uM): 277 and 252
- BacLight Live/Dead fluorescence 485/20,590/35 (E. coli AG100 [2]; 320 uM): 87 and 78
- BacLight Live/Dead fluorescence 485/20,528/20 (E. coli AG100 [2]; 640 uM): 160 and 178
- BacLight Live/Dead fluorescence 485/20,590/35 (E. coli AG100 [2]; 640 uM): 79 and 82
- membrane permeability increase / membrane permeation (E. coli AG100 [2]; AG100, 80 µM): 4%
- effect on cell membrane integrity (E. coli AG100 [2]; AG100, 80 µM (≈1/8 MIC), 1 h): did not alter
- membrane permeation (E. coli AG100 [2]; AG100, 160 μM (1/4 MIC)): 22%
- membrane permeation (E. coli AG100 [2]; AG100, 320 μM (1/2 MIC)): 28%
- membrane permeation (E. coli AG100 [2]; AG100, 640 μM (MIC)): 50%
- reduction of membrane integrity (E. coli AG100 [2]; AG100, half MIC, 1 h): 28%
- MIC of EtBr in presence of the efflux inhibitor (E. coli AG100tet [3]; inhibitor 40 μM): 512 µg/mL
- MIC of OFX in presence of the efflux inhibitor (E. coli AG100tet [3]; inhibitor 40 μM): 0.5 µg/mL
- MIC of OXA in presence of the efflux inhibitor (E. coli AG100tet [3]; inhibitor 40 μM): >2,048 μg/ml
- MIC of TET in presence of the efflux inhibitor (E. coli AG100tet [3]; inhibitor 40 μM): 16 µg/mL
- MIC of EtBr in presence of the efflux inhibitor (E. coli AG100tet [3]; inhibitor 80 μM): 512 µg/mL
- MIC of OFX in presence of the efflux inhibitor (E. coli AG100tet [3]; inhibitor 80 μM): 0.25 µg/mL
- MIC of OXA in presence of the efflux inhibitor (E. coli AG100tet [3]; inhibitor 80 μM): 2,048 μg/ml
- MIC of TET in presence of the efflux inhibitor (E. coli AG100tet [3]; inhibitor 80 μM): 16 µg/mL
- MIC of EtBr in presence of the efflux inhibitor (E. coli AG100tet [3]; inhibitor 160 μM): 512 µg/mL
- MIC of OFX in presence of the efflux inhibitor (E. coli AG100tet [3]; inhibitor 160 μM): 0.25 µg/mL
- MIC of OXA in presence of the efflux inhibitor (E. coli AG100tet [3]; inhibitor 160 μM): 2,048 μg/ml
- MIC of TET in presence of the efflux inhibitor (E. coli AG100tet [3]; inhibitor 160 μM): 16 µg/mL
- decrease in OFX MIC (E. coli AG100tet [3]; inhibitor 80 and 160 µM): 4 fold
- decrease in TET MIC (E. coli AG100tet [3]; inhibitor 80 and 160 µM): 4 fold
- membrane depolarization (E. coli AG100 [4]; 80 µM): 83%
- membrane depolarization (E. coli AG100 [4]; 160 μM (1/4 MIC)): 85%
- membrane depolarization (E. coli AG100 [4]; 320 μM (1/2 MIC)): 89%
- membrane depolarization (E. coli AG100 [4]; 640 μM (MIC)): 91%
- MIC of EtBr in presence of the efflux inhibitor (E. coli AG100 [5]; inhibitor 40 μM): 200 µg/mL
- MIC of OFX in presence of the efflux inhibitor (E. coli AG100 [5]; inhibitor 40 μM): 0.125 µg/mL
- MIC of OXA in presence of the efflux inhibitor (E. coli AG100 [5]; inhibitor 40 μM): 512 µg/mL
- MIC of TET in presence of the efflux inhibitor (E. coli AG100 [5]; inhibitor 40 μM): 1 µg/mL
- MIC of EtBr in presence of the efflux inhibitor (E. coli AG100 [5]; inhibitor 80 μM): 100 µg/mL
- MIC of OFX in presence of the efflux inhibitor (E. coli AG100 [5]; inhibitor 80 μM): 0.125 µg/mL
- MIC of OXA in presence of the efflux inhibitor (E. coli AG100 [5]; inhibitor 80 μM): 512 µg/mL
- MIC of TET in presence of the efflux inhibitor (E. coli AG100 [5]; inhibitor 80 μM): 1 µg/mL
- reduction in EtBr MIC (E. coli AG100 [5]; inhibitor 80 μM): 2 fold
- MIC of EtBr in presence of the efflux inhibitor (E. coli AG100 [5]; inhibitor 160 μM): 50 µg/mL
- MIC of OFX in presence of the efflux inhibitor (E. coli AG100 [5]; inhibitor 160 μM): 0.125 µg/mL
- MIC of OXA in presence of the efflux inhibitor (E. coli AG100 [5]; inhibitor 160 μM): 512 µg/mL
- MIC of TET in presence of the efflux inhibitor (E. coli AG100 [5]; inhibitor 160 μM): 1 µg/mL
- reduction in EtBr MIC (E. coli AG100 [5]; inhibitor 160 μM): 4 fold
- effect on OXA MIC (E. coli AG100 [5]; inhibitor 40 to 160 µM): no effect
- reduction in OFX MIC (E. coli AG100 [5]; inhibitor 40 to 160 µM): 2 fold
- reduction in TET MIC (E. coli AG100 [5]; inhibitor 40 to 160 µM): 2 fold
